79 compounds from the METLIN SMRT retention time set (Domingo-Almenara et al. 2019) can be followed below.

A short description of the data set: gradient 5% acetonitrile 3 min, to 50% in 2 min, to 85% in 15 min, held 3 min, 100 µL/min. To be noted: column: Zorbax Extend-C18 2.1 x 50 mm; eluents: water / acetonitrile, 0.1% formic acid. An outline of the steps: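 Mixtures of ~100 pure standards were chromatographed on a Zorbax Extend-C18 column (2.1 × 50 mm, 1.8 μm) at 100 μL/min using water and acetonitrile, each with 0.1% formic acid. Detection used a quadrupole time-of-flight mass spectrometer in positive and negative ionization mode, and data collection spanned 3 months. Retention time was obtained from adduct peaks picked computationally and each checked manually.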
The compound `Cc1ccc(-c2noc(C3CCCN3S(=O)(=O)c3cc(C)ccc3C)n2)cc1` (centres undefined) registered an RP-LC retention time of 1240 s.
In the case of `CCN(CCCNC(=O)C1CCCN(c2ncnc3c2oc2ccccc23)C1)c1ccccc1` (centres undefined) it was 649 s; in that of `O=C([C@@H]1C[C@H](F)CN1S(=O)(=O)Cc1ccc(Cl)cc1)N1CCCCC1`, 881 s; in that of `CS(=O)(=O)Nc1ccc(-c2noc(CN3C(=O)COc4ccccc43)n2)cc1`, 805 s.
Regarding `O=C(Cc1ccc(Cl)cc1)NC1CCN(c2cc(-c3cccs3)[nH]n2)C1` (centres undefined), the RP-LC retention time amounted to 749 s.
In the case of `CCN1C(=O)CCC2(C(=O)Nc3ccc(C)cc3)CCCC=C12` (centres undefined) it was 781 s; in that of `Cc1nc(NCc2ccco2)sc1C(=O)Nc1cccc(C(F)(F)F)c1`, 887 s.
In the case of `CC1=C(C(=O)N2CCOCC2)C(c2cc(Br)ccc2F)C2=C(CCCC2=O)N1` (centres undefined) it was 659 s; in that of `Cc1oc2ccn(Cc3ccccc3F)c(=O)c2c1C(=O)NCc1cccs1`, 1030 s; in that of `COc1cccc(NC(=O)C2CCCN(C(=O)C3Sc4ccccc4NC3=O)C2)c1` (centres undefined), 786 s.
Consider `CC(=O)N1CCC(C(=O)NCc2nn(Cc3ccccc3)c3ccccc23)CC1`, for which the RP-LC retention time is 728 s.
For the compound `COc1ccccc1Cc1noc(C2CN(C(=O)c3ccc4nsnc4c3)C2)n1`, the RP-LC retention time turned out to be 814 s.
In the case of `CC(C)Cc1ccc(S(=O)(=O)N2C[C@@H](F)C[C@H]2C(=O)N2CCCCC2)cc1` it was 983 s; in that of `Cc1ccc2[nH]c(=O)c(CCC(=O)N3CCN(C4CCCCC4)CC3)cc2c1`, 619 s; in that of `O=C(Cn1nc2c(Oc3ccc(Cl)cc3)nccn2c1=O)NC1CCCC1`, 810 s.
With `CCN(CC)c1nc2cc(C(=O)OC)ccc2c(=O)n1-c1cccc(OC)c1` the figure was 1110 s; with `CCn1cc(C)c(C(=O)O)c1CC(=O)Nc1ccc(C)cn1`, 680 s; with `CCc1cc(C(=O)N2CCN(c3ccccn3)CC2)nc2cc(-c3cccs3)nn12`, 706 s.
With `Cc1[nH]nc(-c2c(C)sc(C)c2S(=O)(=O)NCC(C)c2ccccc2)c1C` (centres undefined) the figure was 1090 s.
`Cc1noc(-c2ccc(=O)n(Cc3cccc(C(F)(F)F)c3)c2)n1` gave an RP-LC retention time of 806 s.
With `CC1CCN(C(=O)C2=CN(c3cc(F)cc(F)c3)c3ccccc3S2(=O)=O)CC1` the figure was 945 s.
In turn, `CCn1cc(-c2nc(CC(=O)NCc3ccc4c(c3)OCO4)cs2)c2cccnc21` displayed an RP-LC retention time of 835 s.
For `CCc1nc(-c2csc(S(=O)(=O)N3CCC(C(=O)Nc4ccc(F)c(Cl)c4)CC3)c2)no1`, the RP-LC retention time worked out at 1150 s.
In the case of `COc1ccc(-c2nc(N(CC(C)C)CC(C)C)c3ccccc3n2)cc1` it was 1020 s.
With `Cc1c(-c2ccnc(N3CCOCC3)n2)cnc2nc(-c3ccccc3)nn12` the figure was 885 s.
`Cc1ccc(NC(=O)NCC(c2cccnc2)c2cn(C)c3ccccc23)c(Cl)c1` (centres undefined) returned an RP-LC retention time of 768 s.
With `O=C(NCCN1CCCC1)c1ccc(-c2noc(-c3ccccc3)n2)s1` the figure was 673 s; with `COc1cc2c(c(O)c1OC)-c1c(cc(OC)c(OC)c1OC)CC(C)C(C)C2` (centres undefined), 1080 s.
For `CC(NC(=O)c1cc(-c2ccccc2)cn1C)c1cccnc1` (centres undefined), the RP-LC retention time came out at 662 s.
In the case of `CC(C)n1nnc2ccc(-c3noc(-c4ccc(F)cc4)n3)cc21` it was 1140 s.
As for `O=C(CCc1nnc2ccc(N3CCC4(CC3)OCCO4)nn12)N1CCN(c2ccccn2)CC1`, the RP-LC retention time was 581 s.
With `Cc1ccc(NC(=O)C2CCN(S(=O)(=O)c3cc(C(=O)N(C)C)cs3)CC2)cc1Cl` the figure was 912 s; with `COc1ccccc1-c1nc(-c2ccc3ncn(C(C)C)c3c2)no1`, 741 s.
With `CCCNS(=O)(=O)c1cc(-c2nnc(-c3ccccc3)o2)ccc1F` the figure was 939 s.
In the case of `COc1ccc(CC(=O)N2C[C@@H]3C[C@H]2C[C@@H]3NC(=O)c2cccnc2)cc1Cl` it was 614 s; in that of `CCOC(=O)c1nc(N2CCOCC2)c2c(-c3ccccc3Cl)noc2n1`, 934 s.
Compound `CCOC(=O)c1[nH]c2ccccc2c1NC(=O)c1ccc(N2C(=O)CCC2=O)cc1` yielded an RP-LC retention time of 699 s.
Turning to `Cc1oc(-c2cccc(Cl)c2)nc1Cn1nnc(-c2nc(-c3ccccc3)no2)c1C`, the RP-LC retention time stood at 1320 s.
In turn, `Cc1ccc(S(=O)(=O)CCc2noc(C(=O)N3CCC4(CC3)OCCO4)n2)cc1` gave an RP-LC retention time of 816 s.
Turning to `CCN1C(=O)CN(C(=O)c2ccoc2)CC12CCOCC2`, the RP-LC retention time is 609 s.
The compound `CCc1ccc(NC(=O)Cn2nc3c(N4CCSCC4)nccn3c2=O)cc1` came in with an RP-LC retention time of 888 s.
With `O=C(CN1CCN(Cc2ccccc2)C1=O)N1CCN(c2ccccc2)CC1` the figure was 788 s; with `COc1ccc(N2CCN(C(=O)NC3CCOCC3)CC2)cc1`, 599 s; with `COCC(=O)N(CC(=O)N1CCc2sccc2C1COc1ccc(C)cc1C)CC1CC1` (centres undefined), 982 s.
`CO[C@H]1CN(C(C)C)[C@H]1C1CCN(C(=O)C(C)C)CC1` showed an RP-LC retention time of 557 s.
For the compound `O=C(c1n[nH]c2c1CCCC2)N1CCn2c(nnc2-c2ccccc2)C1`, the RP-LC retention time came to 645 s.
The compound `C=CCn1c(NCc2ccccc2Cl)nc2ccccc21` gave an RP-LC retention time of 699 s.
In the case of `COC(=O)C1=CN(c2ccc(OC)c(Cl)c2)c2ccc(F)cc2S1(=O)=O` it was 886 s; in that of `CC1CCC(C(=O)NC(Cc2c[nH]c3ccccc23)C(=O)Nc2ccncc2)CC1` (centres undefined), 668 s; in that of `CCCc1nc(NCc2ccc(OC)c(OC)c2)ncc1C(=O)O`, 740 s.
For the compound `CCc1cc2c(cc(C(=O)NCc3cccs3)n2C)s1`, the RP-LC retention time is 1010 s.
The compound `COc1ccc(NC(=O)C2CCN(c3cc(N4CCCCC4)ncn3)CC2)c(OC)c1` returned an RP-LC retention time of 694 s.
`O=C1COc2ccc(S(=O)(=O)N3CCC(C(=O)NCCc4ccccc4)CC3)cc2N1` showed an RP-LC retention time of 740 s.
In the case of `CC1CCCN(CC2CCN(S(=O)(=O)c3ccc4c(c3)CCC4)CC2)C1` (centres undefined) it was 719 s; in that of `Cn1cnc(S(=O)(=O)N2CCOc3ccc(NC(=O)C4CC4)cc3C2)c1`, 658 s; in that of `O=C1C[C@@H](c2ccc(O)c(O)c2)Oc2c1ccc(O[C@@H]1O[C@H](CO)[C@@H](O)[C@H](O)[C@H]1O)c2O`, 617 s.
The compound `COc1ncc(C(=O)Nc2ccc(F)cc2C)c(C)n1` came in with an RP-LC retention time of 638 s.
In the case of `O=C(c1ccc2c(c1)OCO2)N1C[C@@H](CO)[C@H](c2ccncc2)C1` it was 558 s; in that of `CS(=O)(=O)N1CCCc2ccc(NS(=O)(=O)c3ccc(Cl)s3)cc21`, 849 s.
Take `COCc1noc([C@@H]2CC(F)(F)CN2C(=O)c2cn(C)cn2)n1`: the RP-LC retention time came to 610 s.
For `O=C(CCC1CCCC1)NC1(c2nc(-c3cccnc3)no2)CCCCC1`, the RP-LC retention time worked out at 1020 s.
In the case of `O=C([C@@H]1C[C@H](F)CN1C(=O)c1cc(F)ccc1F)N1CCCCC1` it was 700 s; in that of `O=C(Cn1cnc2sc3c(c2c1=O)CCCC3)Nc1cccc(Cl)c1`, 984 s; in that of `CCn1nccc1-c1cccc(-c2noc(-c3cccc(OC)c3OC)n2)c1`, 1170 s.
The compound `COc1ccc(N2CCN(C(=O)C3CCN(c4cnc5nccnc5c4)CC3)CC2)cc1` yielded an RP-LC retention time of 634 s.
In the case of `O=S(=O)(c1ccccc1)N1CCC(Cc2nncn2-c2ccccc2)C1` (centres undefined) it was 709 s; in that of `O=C(NCc1cccs1)c1nc(-c2ccc(N3CCCC3)cc2)no1`, 1110 s.
With `Cc1ccc2c(c1)c1nc3ccccc3nc1n2CC(=O)O` the figure was 721 s; with `Cn1ncc2c(N3CCSCC3)nc(C(=O)NCc3ccc(C(F)(F)F)cc3)nc21`, 907 s; with `CC(C)c1noc(-c2cc(=O)n(CC(=O)Nc3ccc(Cl)cc3F)c3ccccc23)n1`, 1100 s.
With `Cc1cc(NCc2ccccn2)n2ncnc2n1` the figure was 562 s; with `CCCNC(=O)C1CCN(c2ccc(SCC(=O)Nc3ccccc3C(=O)OC)nn2)CC1`, 666 s; with `Cn1ncc(N2CCC(C(=O)NCc3nc4ccccc4n3C)C2)cc1=O` (centres undefined), 569 s.
`Cc1ccccc1C(=O)NCc1nn(C)c2ccccc12` had an RP-LC retention time of 857 s.
With `Cc1cccc2c(=O)c3c([nH]c12)CCN(CC(=O)NCc1ccccc1)C3` the figure was 601 s; with `COc1cccc(N2CCN(C(=O)Cn3ccc4c(SCc5ccccc5)nccc43)CC2)c1`, 775 s; with `CC1CCN(S(=O)(=O)c2ccc(-c3nnc(C(=O)N4CCCC4)o3)cc2)CC1`, 941 s.
`CCc1cc(C(=O)Nc2ccc(C#N)cc2)nc2cc(-c3ccco3)nn12` returned an RP-LC retention time of 1130 s.
In the case of `CCCNC(=O)C1CCCN(c2nc3ncn(CC(=O)Nc4ccc(OCC)cc4)c(=O)c3s2)C1` (centres undefined) it was 720 s.
